Tests used:
[1] = literature report; cited from earlier work
atherosclerotic plaque = experiment: Coronary / atherosclerotic plaque by heart CT scan score in patients; type: in vivo, human; conditions: for effect on plaques (heart CT scan score): patients with coronary plaques
Protocol: In clinical practice with regard to plaque formation, the present inventor observed that blood serum levels of D3 of about 50 ng/mL provide sufficient effect. Below 50 ng/mL, there is an incremental effect, with a very small effect as low as 20 ng/mL, but a significant effect emerging at 40-45 ng/mL. By 50 ng/mL, there is a significant and often sufficient effect. About 50 ng/mL of 25-hydroxy-vitamin D [25(OH)D] in blood serum provides a reasonably strong effect against plaque buildup.

[2] = Clinical observation of lipids, inflammatory levels and blood pressure on oral D3; type: in vivo, human; conditions: oral administration
Source text: The present inventor observed lipid effects (reduced triglycerides, a raise in the levels of HDL [“good cholesterol”] and a reduction in LDL particles [“bad cholesterol”]) from oral supplementation of an oil-based preparation of D3.

Structure (SMILES) | conversion of D2 to D3 in humans [1] | blood serum level of D3 at which a significant effect emerges (plaque formation) (atherosclerotic plaque; clinical practice) | blood serum level of D3 providing sufficient effect on plaque formation (atherosclerotic plaque; clinical practice) | blood serum level of D3 with a very small effect (plaque formation) (atherosclerotic plaque; clinical practice) | effect on plaques (heart CT scan score) (atherosclerotic plaque; listed as oral D3) | effect on plaques (heart CT scan score) (atherosclerotic plaque; listed as vitamin D) | blood pressure [2] | inflammatory levels [2]
C=C1CC[C@H](O)C/C1=C/C=C1\CCC[C@]2(C)[C@@H]([C@H](C)/C=C/[C@H](C)C(C)C)CC[C@@H]12 [D2, ergocalciferol] | ≤ 70% | – | – | – | – | – | – | –
C=C1CC[C@H](O)C/C1=C/C=C1\CCC[C@]2(C)[C@@H]([C@H](C)CCCC(C)C)CC[C@@H]12 [D3, cholecalciferol] | – | 40 to 45 ng/mL | about 50 ng/mL | 20 ng/mL | positive effect | decreased evidence of plaques | reductions | reductions
